Laboratory results published in PubChem BioAssay AID2060611 (Molecular Pharmacology Branch, DTP, NCI, 2025).
Where “and” joins values, the source holds several entries; their conditions need not be identical. Equal values may be shown once.

Tested on: 628569-122-R-J1-PDC complex spheroid viability
Assay: Anticancer human tumor 628569-122-R-J1-PDC patient-derived head and neck squamous carcinoma cell line growth inhibition [CLK]
Conditions: for viability, T/C: stronger effect = lower value
Source text: A high-throughput screen of multi-cell type tumor spheroids was designed to identify active combinations of […] and targeted small molecules. Complex spheroids include a stromal component modeled by human endothelial cells (HUVEC) and fibroblasts modeled by human mesenchymal stem cells (MSCs). The concentration ranges selected for each drug and investigational agent were based upon clinically achievable concentrations if the clinical Cmax of the agent was known.
Compounds. The drugs and investigational agents: cirtuvivint (SM08502; NSC835563), CC-671 (NSC850746), vemurafenib (NSC761431), tapotoclax (NSC804041), sotorasib (NSC818433), adagrasib (NSC831453), MRTX-1133 (NSC836407), BAY2416964 (NSC825713), copanlisib (NSC816437), inavolisib (NSC800729), abemaciclib (NSC768073), osimertinib (NSC779217), entinostat (NSC756642), eltanexor (KPT-8602, NSC794443), venetoclax (NSC766270), ceralasertib (NSC777638), bortezomib (NSC756655), olaparib (NSC753686), talazoparib (NSC767125), alisertib (NSC759677), peposertib (NSC802822), gemcitabine (NSC613327), 5-fluorouracil (NSC19893), SN-38 (NSC673596), oxaliplatin (NSC266046), paclitaxel (NSC125973), and doxorubicin (NSC123127), were obtained from the National Cancer Institute (NCI) Developmental Therapeutics Program Chemical Repository. The FDA-approved anticancer drug set is available from the Developmental Therapeutics Program at https://dtp.cancer.gov/organization/dscb/obtaining/available plates.htm. […] The stock solutions were prepared in dimethyl sulfoxide (DMSO, Sigma-Aldrich, St. Louis, MO, cat. D2650), except for the platinum complexes which were prepared in saline (Quality Biological, Gaithersburg, MD, cat. 114-055-101), at 800-fold the tested concentration and stored at -70 degrees C prior to their use. All drugs and investigational agents were tested over a range starting from a high concentration at or near the clinical Cmax and decreasing in half-log increments. If the clinical Cmax for an agent had not been determined, the highest concentration tested was 10 microM.
Cell Culture. All cells were maintained in an incubator at 37 degrees C and 5% CO2 with 95% humidity. The PDC lines were cultured according to standard operating procedures established by the NCI PDMR. Briefly, all PDCs were thawed and cultured in Matrigel-coated flasks prepared with a working solution of 1X Ham's F-12 nutrient mix, without supplementation (Invitrogen, Waltham, MA, cat. 11765054), 100 U/mL penicillin-streptomycin (Invitrogen, cat. 15140122), and 2.5% Matrigel (Corning Inc., Corning, NY, cat. 354248) for the first three passages. The 947758-054-R-J2-PDC line was cultured in 6B/Colon 1A media, which includes advanced DMEM/F-12 (Thermo Fisher Scientific, cat. 12634028), 10 mM HEPES (Thermo Fisher Scientific, cat. 15630080), 1X GlutaMAX supplement (Thermo Fisher Scientific, cat. 35050061), 0.1 mg/mL primocin (InvivoGen, cat. ant-pm-2), 10% defined fetal bovine serum, heat inactivated (HyClone Laboratories Inc., cat. SH30070.03HI), 1.25 mM N-Acetyl-L-cysteine (Sigma-Aldrich, cat. A9165), 10 mM nicotinamide (Sigma-Aldrich, cat. N0636), 1X B-27 supplement (Thermo Fisher Scientific, cat. 17504044), 1X N-2 supplement (Thermo Fisher Scientific, cat. 17502048), and 10 microM Y-27632 dihydrochloride (Tocris Bioscience, cat. 1254). The 876862-298-R-J1-PDC was cultured in 6E media, which includes all 6B/Colon 1A media components plus 50% L-WRN conditioned media (ATCC, cat. CRL-3276), 50 ng/mL recombinant human EGF recombinant protein (hEGF; Thermo Fisher Scientific, cat. PHG0311), 10 ng/mL recombinant human fibroblast growth factor 10 (hGFG-10; PeproTech, cat. 100-26), 1 ng/mL recombinant human fibroblast growth factor 2 (hFGF-2; PeproTech, cat. 100-18B), and 1 µM prostaglandin E2 (PGE2; Tocris, cat. 2296). The 227483-062-R1-J1-PDC line was cultured in Panc media, containing all 6E components except hFGF-2, with the addition of 500 nM SB-431542 (Selleckchem, cat. S1067) and 10 nM gastrin (Tocris, cat. 3006). […]
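Also: spheroids exposed to agents for seven days before readout.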
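For viability, T/C in this document: 100% = DMSO vehicle control viability.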

Compound	viability, T/C (compound 0.0316 µM)	viability, T/C (compound 0.1 µM)	viability, T/C (compound 0.316 µM)	viability, T/C (compound 1 µM)	viability, T/C (compound 3.16 µM)	viability, T/C (compound 10 µM)	IC50 (curve of compound)	further results
C#Cc1c(F)ccc2cc(O)cc(-c3ncc4c(N5CC6CCC(C5)N6)nc(OCC56CCCN5CC(F)C6)nc4c3F)c12 (configuration not stated)	88.1% and 89.3%	88.5% and 80.7%	73.6% and 65.8%	68.5% and 81%	92% and 112%	120% and 91.5%	> 10000 nM	–
C=C(F)C(=O)N1CCN(c2nc(OCC3CCCN3C)nc3c2CCN(c2cccc4cccc(Cl)c24)C3)CC1CC#N (configuration not stated)	79.5% and 98.1%	108% and 77.6%	85.4% and 79.5%	93.6% and 82.5%	116% and 123%	12.6% and 30.3%	5990 nM and 6930 nM	–
C=CC(=O)N1CCN(c2nc(=O)n(-c3c(C)ccnc3C(C)C)c3nc(-c4c(O)cccc4F)c(F)cc23)C(C)C1 (configuration not stated)	88.8% and 84.2%	95.5% and 87.3%	92.8% and 92.9%	113% and 101%	124% and 132%	118% and 124%	> 10000 nM	–
C=CC(=O)Nc1cc(Nc2nccc(-c3cn(C)c4ccccc34)n2)c(OC)cc1N(C)CCN(C)C	–	–	–	–	–	–	> 300 nM	viability, T/C (compound 0.000949 µM): 81.8% and 77.8%; viability, T/C (compound 0.003 µM): 105% and 86.5%; viability, T/C (compound 0.00949 µM): 92.6% and 78.3%; viability, T/C (compound 0.03 µM): 73.7% and 73.6%; viability, T/C (compound 0.0949 µM): 98.9% and 71.4%; viability, T/C (compound 0.3 µM): 71.7% and 55.5%
CC(C)CC(NC(=O)C(Cc1ccccc1)NC(=O)c1cnccn1)B(O)O (configuration not stated)	–	–	–	–	–	–	4.47 nM and 4.75 nM	viability, T/C (compound 0.000949 µM): 86.3% and 91.7%; viability, T/C (compound 0.003 µM): 68% and 73.5%; viability, T/C (compound 0.00949 µM): 16.2% and 14.8%; viability, T/C (compound 0.03 µM): 8.01% and 3.1%; viability, T/C (compound 0.0949 µM): 7.3% and 7.41%; viability, T/C (compound 0.3 µM): 6.04% and 11.3%
CC(CO)NC(=O)c1cc(-c2ccc(Cl)cc2)nn(-c2cnn(C)c2)c1=O (configuration not stated)	112% and 116%	123% and 158%	177% and 202%	169% and 217%	175% and 243%	149% and 181%	> 10000 nM	–
CC(Nc1ccc2c(c1)OCCn1cc(N3C(=O)OCC3C(F)F)nc1-2)C(N)=O (configuration not stated)	66.2% and 56.2%	68.1% and 60.1%	39.3% and 46.8%	40.2% and 37.5%	32% and 39.5%	18.5% and 29.7%	279 nM and 217 nM	–
CC1(C)CCC(CN2CCN(c3ccc(C(=O)NS(=O)(=O)c4ccc(NCC5CCOCC5)c([N+](=O)[O-])c4)c(Oc4cnc5[nH]ccc5c4)c3)CC2)=C(c2ccc(Cl)cc2)C1	96.8% and 88.2%	97.5% and 99.5%	86.7% and 95.1%	101% and 91.4%	101% and 90.6%	80.5% and 73.1%	> 10000 nM	–
CC1COCCN1c1cc(C2(S(C)(=N)=O)CC2)nc(-c2ccnc3[nH]ccc23)n1 (configuration not stated)	106% and 94.9%	89.1% and 89.6%	102% and 68.9%	65.9% and 50.8%	42.5% and 40.7%	33.7% and 33.3%	1930 nM and 1080 nM	–
CCCS(=O)(=O)Nc1ccc(F)c(C(=O)c2c[nH]c3ncc(-c4ccc(Cl)cc4)cc23)c1F	107% and 87%	88.2% and 74.5%	94.3% and 70.7%	108% and 71.2%	104% and 77.5%	83.7% and 70.3%	> 10000 nM	–
CCN1CCN(Cc2ccc(Nc3ncc(F)c(-c4cc(F)c5nc(C)n(C(C)C)c5c4)n3)nc2)CC1	73.7% and 72.2%	70.1% and 68.2%	105% and 79.5%	182% and 142%	–	–	> 1000 nM	viability, T/C (compound 0.00316 µM): 86.6% and 89.6%; viability, T/C (compound 0.01 µM): 81.3% and 70%
CCc1c2c(nc3ccc(O)cc13)-c1cc3c(c(=O)n1C2)COC(=O)[C@]3(O)CC	50.3% and 45.5%	41.7% and 39%	35.8% and 39%	8.79% and 15.5%	–	–	–	viability, T/C (compound 0.00316 µM): 69.5% and 53%; viability, T/C (compound 0.01 µM): 50.6% and 38%
CN1CCN(c2cc(C(=O)Nc3cc4cc(-c5cnn(C)c5)ccc4cn3)ccn2)CC1	104% [middle of 12 runs]	69.2% [middle of 12 runs]	35.6% [middle of 12 runs]	5.28% [middle of 12 runs]	7.69% [middle of 12 runs]	6.81% [middle of 12 runs]	–	IC50 (compound alone, run of 09/18/2023): 187 nM [middle of 12 runs]
CNC(=O)c1ccc(Nc2nc(OC3CCCC3)c3c(-c4ccc5nc(C)oc5c4)c[nH]c3n2)c(OC)c1	95.7% [middle of 12 runs]	60.6% [middle of 12 runs]	54.9% [middle of 12 runs]	44.6% [middle of 12 runs]	40.7% [middle of 12 runs]	41.4% [middle of 12 runs]	–	–
COC1C=CCC(C)C(C)S(=O)(=O)NC(=O)c2ccc3c(c2)N(CC2CCC21)CC1(CCCc2cc(Cl)ccc21)CO3 (configuration not stated)	101% and 91.8%	107% and 82.2%	73% and 64.9%	57.9% and 45.1%	42.4% and 42.2%	36.5% and 33.7%	1490 nM and 826 nM	–
COc1c(OCCCN2CCOCC2)ccc2c3n(c(=NC(=O)c4cnc(N)nc4)nc12)CCN3	33.9% and 37.7%	21.9% and 23.6%	15.5% and 12.8%	4.99% and 10.7%	–	–	16 nM and 9.1 nM	viability, T/C (compound 0.00316 µM): 79.2% and 77.8%; viability, T/C (compound 0.01 µM): 61.3% and 39.7%
Cn1ncnc1[C@H]1c2n[nH]c(=O)c3cc(F)cc(c23)N[C@@H]1c1ccc(F)cc1	67.8% and 81.5%	69.2% and 63.6%	–	–	–	–	> 100 nM	viability, T/C (compound 0.000316 µM): 90.7% and 78.8%; viability, T/C (compound 0.001 µM): 96.5% and 103%; viability, T/C (compound 0.00316 µM): 97.3% and 61.4%; viability, T/C (compound 0.01 µM): 89.6% and 93.2%
NC(=O)C(=Cn1cnc(-c2cc(C(F)(F)F)cc(C(F)(F)F)c2)n1)c1cncnc1	–	–	–	–	–	–	666 nM and 210 nM	viability, T/C (compound 0.00949 µM): 71.1% and 74%; viability, T/C (compound 0.03 µM): 66.9% and 66.1%; viability, T/C (compound 0.0949 µM): 52.1% and 56.7%; viability, T/C (compound 0.3 µM): 63.8% and 49.3%; viability, T/C (compound 0.949 µM): 44.3% and 35.1%; viability, T/C (compound 3 µM): 41.7% and 33.4%
Nc1ccccc1NC(=O)c1ccc(CNC(=O)OCc2cccnc2)cc1	91% and 99.9%	87.9% and 94.8%	123% and 125%	151% and 140%	135% and 121%	52.9% and 43.9%	> 10000 nM and 9090 nM	–
Nc1ccn(C2OC(CO)C(O)C2(F)F)c(=O)n1 (configuration not stated)	56.4% and 64.8%	48.9% and 39.6%	59% and 51.7%	42.4% and 32.9%	49.2% and 40.4%	45.5% and 42%	626 nM and 65.4 nM	–
O=C(c1cc(Cc2n[nH]c(=O)c3ccccc23)ccc1F)N1CCN(C(=O)C2CC2)CC1	86.8% and 91.2%	96.3% and 91.3%	90.6% and 110%	88.7% and 91.9%	74.6% and 93.7%	55.2% and 51.5%	> 10000 nM	–
O=c1[nH]cc(F)c(=O)[nH]1	93.5% and 94.5%	103% and 97.7%	96% and 86.2%	82.7% and 70.5%	84.2% and 69.9%	68.2% and 50.6%	> 10000 nM	–
